From patent US20100184026A1, “Companion Diagnostic Assays For Endothelin Receptor Antagonists” (ABBOTT LABORATORIES, priority 2009, published 2010)

Tests used:
osteoblastic metastases = conditions: Yin et al. 2003; cited from earlier work
[1] = test system: Mouse preosteoblastic MC3T3 cells; assay: Microarray analysis of gene expression in ET-treated mouse osteoblasts; format: cell-based; conditions: for # Genes Blocked by ABT-627, percent of genes induced by ET: drug added 1 hour prior to ET; for Induced by ET (number of genes): genes regulated ≧1.5-fold, p ≦0.01
Source text: (§1) Mouse MC3T3 pre-osteoblastic cells (subclone 4) were purchased from ATCC (Manassis, Va.) and propagated in αMEM media without ascorbic acid (Invitrogen, Carlsbad, Calif.) supplemented with 10% FBS (Invitrogen). Human Mesenchymal Stem Cells (MSCs) were purchased from Cambrex (Walkersville, Md.) and propagated according in MSCGM™ media (Cambrex). To initiate differentiation of the MSC into human osteoblasts, the growth media was replaced by osteogenic differentiation medium (OGM, Cambrex).
(§2) Mouse preosteoblastic MC3T3 cells as well as primary human osteoblasts were treated with ET, from Sigma (St. Louis, Mo.), for 2, 4, and 6 hours in the absence or presence of the ETa receptor antagonist ABT-627, from Abbott Laboratories (Abbott Park, Ill.). The drug was added 1 hour prior to the addition of ET.
(§3) Total RNA was extracted from the treated cell lines and purified on RNeasy columns (Qiagen, Valencia, Calif.). Labeled cRNA was prepared according to the microarray manufacturer Affymetrix's protocol and hybridized to either mouse 430A 2.0 or human U133A 2.0 arrays (Affymetrix, Santa Clara, Calif.). Gene expression fold changes for each treatment were calculated by combining three biological replicates for each treatment using the Rosetta Resolver's Affymetrix error model software and building a ratio from the resulting values. All genes regulated ≧1.5-fold with a p-value of ≦0.01 were retained for further analysis. Conventional two-dimensional clustering was then performed by using the agglomerative hierarchical clustering algorithm. The Euclidean distance was used as the similarity metric.

[2] = test system: mouse MC3T3 osteoblast cell line; assay: ELISA assays of secreted PAI-1, OPG and IL-6 in osteoblast supernatants; format: cell-based
Source text: as §1
Mouse MC3T3 osteoblast cells were propagated as set out above, and at times indicated were harvested and spun at 250×g for 10 minutes at room temperature. The clarified supernatants were aliquoted and frozen until analyzed. 200 microliters of each sample was tested in quadruplicate by commercially available ELISA assay kits for PAI-1 (Molecular Innovations, Southfield, Mich.), OPG (Biomedica, San Diego, Calif.) and IL-6 (Ray Biotech, Norcross, Ga.). The ELISA tests were performed according to the manufacturer's instructions. Data from these tests are shown in FIG. 1 (PAI-1), FIG. 2 (OPG) and FIG. 3 (IL-6).

[3] = test system: metastatic hormone-refractory prostate cancer; conditions: patients with metastatic hormone-refractory prostate cancer; Nelson et al. 2003; cited from earlier work
[4] = test system: primary human osteoblasts; assay: Microarray analysis of gene expression in ET-treated primary human osteoblasts; format: cell-based; conditions: ET-1 treatment
Source text: as §1, §2
as §3, with “All genes regulated ≧1.5-fold with a p-value of ≦0.01 were retained for further analysis. Conventional two-dimensional clustering was then performed by using the agglomerative hierarchical clustering algorithm. The Euclidean distance was used as the similarity metric.” left out

[5] = endothelin in the presence of ABT-627

Q: With `CCCCN(CCCC)C(=O)CN1C[C@H](c2ccc3c(c2)OCO3)[C@@H](C(=O)O)[C@@H]1c1ccc(OC)cc1` [ABT-627, (2R,3R,4S)-(+)-2-(4-Methoxyphenyl)-4-(1,3-benzodioxol-5-yl)-1-(N,N-di(n-butyl)aminocarbonylmethyl)-pyrrolidine-3-carboxylic acid] as the compound, how does the Metastatic growth (osteoblastic metastases) read?
A: Its Metastatic growth is “suppressed”.

Q: And the “# Genes Blocked by ABT-627, percent of genes induced by ET” value (from here on “# Genes Blocked by ABT-627, percent”) ([1]; 2 hr ET)?
A: Its value is “(96%)”.

Q: What about the “# Genes Blocked by ABT-627, percent” value ([1]; 4 hr ET) of the same compound?
A: The value was “(83%)”.

Q: What about the “# Genes Blocked by ABT-627, percent” value ([1]; 6 hr ET) of the same compound?
A: Its value is “(97%)”.

Q: And the “Induction by ET of suppression-of-apoptosis genes (Nur77, Flt1, NFATc1)” value ([1]; ET in presence of ABT-627)?
A: Its value is “the induction was blocked”.

Q: And the “Effect of pre-treatment on ET gene induction events” value ([1]; all three timepoints (2, 4, 6 hours), pre-treatment before ET)?
A: The value was “abrogated almost all of these gene induction events”.

Q: And the “Gene expression changes caused by antagonist alone” value ([1]; antagonist alone, no ET)?
A: The value was “very few gene expression changes”.

Q: What about the “Induction by ET-1 of osteoblastic maturation genes (OPG, COX-2, Dmp1, Tgfbi, CTGF, Klf10)” value ([1]; pre-treatment with ABT-627) of the same compound?
A: Its value is “blocked”.

Q: And the “Endothelin-induced expression of IL-6 (ELISA)” value [2, 5]?
A: The value was “substantial suppression”.

Q: What about the “Endothelin-induced expression of OPG (ELISA)” value [2, 5] of the same compound?
A: The value was “substantial suppression”.

Q: What about the “Endothelin-induced expression of PAI-1 (ELISA)” value [2, 5] of the same compound?
A: The value was “substantial suppression”.

Q: What about the “Time to disease progression” value [3] of the same compound?
A: The value was “extended”.

Q: Which results are given for `CC[C@H](C)[C@H](NC(=O)[C@H](CC(=O)O)NC(=O)[C@H](CC(C)C)NC(=O)[C@H](Cc1c[nH]cn1)NC(=O)[C@@H]1CSSC[C@H](N)C(=O)N[C@@H](CO)C(=O)N[C@H]2CSSC[C@H](NC(=O)[C@H](CCC(=O)O)NC(=O)[C@H](CCCCN)NC(=O)[C@H](CC(=O)O)NC(=O)[C@H](CCSC)NC(=O)[C@H](CC(C)C)NC(=O)[C@H](CO)NC(=O)[C@H](CO)NC2=O)C(=O)N[C@@H](C(C)C)C(=O)N[C@@H](Cc2ccc(O)cc2)C(=O)N[C@@H](Cc2ccccc2)C(=O)N1)C(=O)N[C@H](C(=O)N[C@@H](Cc1c[nH]c2ccccc12)C(=O)O)[C@@H](C)CC` [ET]?
A: Expression of genes coding for secreted proteins (PAI-1, uPA, TGFbeta2, IL-6, IL-8) [4]: strongly upregulated; # Genes Down-regulated by ET ([1]; 2 hr ET treatment): 423; Induced by ET (number of genes) ([1]; 2 hr ET treatment): 608; # Genes Down-regulated by ET ([1]; 4 hr ET treatment): 295; Induced by ET (number of genes) ([1]; 4 hr ET treatment): 472; # Genes Down-regulated by ET ([1]; 6 hr ET treatment): 95; Induced by ET (number of genes) ([1]; 6 hr ET treatment): 194; Expression of suppression-of-apoptosis genes (Nur77, Flt1, NFATc1) ([1]; ET treatment): induced; Expression of genes coding for secreted proteins (PAI-1, uPA, TGFbeta2, IL-6, IL-8) ([1]; mouse osteoblasts, ET-1 treatment): strongly upregulated; Expression of IL-6 (ELISA) ([2]; treatment with endothelin): strongly induced; Expression of OPG (ELISA) ([2]; treatment with endothelin): strongly induced; Expression of PAI-1 (ELISA) ([2]; treatment with endothelin): strongly induced
